Experimental data published in paper PMC7394005, “Assessing the Selectivity of FXR, LXRs, CAR, and RORγ Pharmaceutical Ligands With Reporter Cell Lines” (Frontiers in Pharmacology, 2020).

Molecular target: T1, human PXR (Homo sapiens, UniProt O75469)
T1 construct: The GAL4-NR chimeric cell lines provide uniform cellular model differing just in receptor LBDs; expressed in transfected cells; host or cells: HG5LN PXR (HeLa-derived; described in Delfosse et al., 2015)
T1 sequence (O75469 146-433 limits assumed): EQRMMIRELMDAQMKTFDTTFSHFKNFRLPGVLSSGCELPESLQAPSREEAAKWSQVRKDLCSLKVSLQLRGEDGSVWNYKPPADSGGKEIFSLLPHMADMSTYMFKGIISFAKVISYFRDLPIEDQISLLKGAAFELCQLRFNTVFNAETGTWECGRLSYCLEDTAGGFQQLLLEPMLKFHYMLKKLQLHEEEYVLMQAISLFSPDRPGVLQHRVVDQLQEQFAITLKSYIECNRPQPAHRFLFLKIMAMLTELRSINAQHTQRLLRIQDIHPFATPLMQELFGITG
Test: HG5LN PXR reporter cell line, antagonist mode in presence of SR12813
Type: cell-based
Conditions: read-out: PXR (SR12813 300 nM) IC50; in presence of SR12813 300 nM; NE = No effect
Description: To characterize the specificity of chemicals for human FXR, LXRα, LXRβ, CAR and RORγ, we established in a similar manner HG5LN FXR, LXRα, LXRβ, CAR WT, CAR (APYLT) and RORγ reporter cell lines. […] These cells were stably transfected by pSG5-GAL4 (DBD)-NRs (LBD)-puromycin plasmid and selected in presence of 0.5 µg/ml puromycin. […] From each HG5LN NR cells, 5 to 10 clones were chosen for their ligand inducibility of luciferase expression. […] The most inducible clones were expanded and rechecked for inducibility and aliquots were frozen at different passages. One clone per receptor was maintained in culture and used for ligand screening. HG5LN cells were cultured in Dulbecco’s modified Eagle’s medium (DMEM): Nutrient Mixture F-12 (DMEM/F-12) containing phenol red and 1 g/l glucose and supplemented with 5% fetal bovine serum, 100 units/ml of penicillin, 100 µg/ml of streptomycin and 1 mg/ml geneticin, in 5% CO2 humidified atmosphere at 37°C. Stably transfected cell lines derived from HG5LN cells were cultured in the same culture medium supplemented with 0.5 µg/ml puromycin.
(§1) Individual reporter cell lines were seeded at a density of 40,000 cells per well in 96-well white opaque tissue culture plates (Greiner CellStar) in Dulbecco’s Modified Eagle Medium: Nutrient Mixture F-12 (DMEM/F-12) without phenol red and 1 g/l glucose and supplemented with 5% stripped fetal bovine serum, 100 units/ml of penicillin, 100 µg/ml of streptomycin (test medium). Chemicals to be tested were added 24h later, and cells were incubated at 37°C for 16h. Experiments were performed in quadruplicates. At the end of the incubation period, culture medium was replaced with test medium containing 0.3 mM luciferin solution. Luciferase activity was measured for 2s in intact living cells after 10 min stabilization using a Micro Beta Wallac luminometer (PerkinElmer). EC50 values were calculated using GraphPad Prism (GraphPad Software Inc).
Chemicals tested for agonism on FXR, LXRs, CAR (+ APYLT), PXR, and antagonism on CAR and RORγ were tested alone, without addition of any other ligand.
In the transactivation assay, each compound was tested at various concentrations in three independent experiments at least. For each experiment, tests were performed in quadruplicates for each concentration, and data are expressed by means values with standard deviations. Individual agonist dose–response curves, in the absence and presence of antagonist, were fitted using the sigmoid dose-response function of a graphics and statistics software program (GraphPad Prism, version 5.0). EC50 (effective concentration for half-maximal luciferase activity) and IC50 (half-maximal inhibitory concentration) values were calculated from equations used to fit the data in this graphic software. Transactivation data are presented as EC50 and IC50 values for each compound tested. To analyze significances, we compared individual compound treatments with controls using one-way analysis of variance (ANOVA) with the help of GraphPad Prism software.

Row | Molecule | IC50 [µM]
1 | COC(=O)/C=C/c1cccc(N(Cc2ccc(-c3ccc(N(C)C)cc3)cc2)C(=O)C2CCCCC2)c1 [Feraxamine] | > 10
2 | CC(=O)Nc1nc(C)c(S(=O)(=O)Nc2ccc(C(O)(C(F)(F)F)C(F)(F)F)cc2)s1 [SR1001] | > 10
3 | CC(C)c1onc(-c2c(Cl)cccc2Cl)c1COc1ccc(/C=C/c2cccc(C(=O)O)c2)c(Cl)c1 [GW4064] | > 10
4 | COc1cccc(Cn2cc(C(=O)Nc3ccc(C)c(S(=O)(=O)N4CCOCC4)c3)c(-c3ccc(C)cc3)n2)c1 [DY268] | > 10
5 | Cc1oc2ccccc2c1CNC(=O)NCc1cccs1 [S07662] | > 10
6 | O=C(Nc1ccc(C(O)(C(F)(F)F)C(F)(F)F)cc1)c1ccc(C(F)(F)F)cc1 [SR1078] | > 10

Test system: HG5LN parental cell line
Test: Non-specific modulation of luciferase expression in HG5LN parental cell line
Type: cell-based, human
Conditions: HG5LN parental cells lacking Gal4-NRs; Figure S2
Description: HG5LN and HG5LN PXR cells have already been described ([Delfosse et al., 2015]). To characterize the specificity of chemicals for human FXR, LXRα, LXRβ, CAR and RORγ, we established in a similar manner HG5LN FXR, LXRα, LXRβ, CAR WT, CAR (APYLT) and RORγ reporter cell lines. HG5LN are HeLa cells stably transfected by the (GAL4RE)5-βGlob-Luc-SVNeo plasmid ([Seimandi et al., 2005]). These cells were stably transfected by pSG5-GAL4 (DBD)-NRs (LBD)-puromycin plasmid and selected in presence of 0.5 µg/ml puromycin. […] From each HG5LN NR cells, 5 to 10 clones were chosen for their ligand inducibility of luciferase expression. We noted that the basal activity in absence of ligand strongly differed among NRs. FXR, LXRs, and CAR APYLT had the lowest basal activities, whereas CAR and RORγ had the highest. The most inducible clones were expanded and rechecked for inducibility and aliquots were frozen at different passages. One clone per receptor was maintained in culture and used for ligand screening. HG5LN cells were cultured in Dulbecco’s modified Eagle’s medium (DMEM): Nutrient Mixture F-12 (DMEM/F-12) containing phenol red and 1 g/l glucose and supplemented with 5% fetal bovine serum, 100 units/ml of penicillin, 100 µg/ml of streptomycin and 1 mg/ml geneticin, in 5% CO2 humidified atmosphere at 37°C. Stably transfected cell lines derived from HG5LN cells were cultured in the same culture medium supplemented with 0.5 µg/ml puromycin.
as §1
To evaluate the FXR, LXRα, LXRβ, PXR, CAR, and RORγ specificity of pharmaceutical chemicals, we established HG5LN reporter cell lines expressing human FXR, LXRα, LXRβ, CAR, CAR (+ APYLT), and RORγ. Then, we tested the agonistic/antagonistic potential of 22 commercially available pharmaceutical compounds ( Figure S1 ) on these cells and in the previously established PXR cell line ([Delfosse et al., 2015]). The 22 chemicals were first tested for non-specific modulation of luciferase expression on the HG5LN parental cell line, which contains the same reporter gene as HG5LN-GAL4-NRs cells, but lacks of Gal4-NRs. […] The basal (in absence of ligand) and the maximal (in presence of NR-specific full agonist) activities of HG5LN and the different HG5LN GAL4-NRs were measured. […] The expression of FXR induced the slight repression of basal transcription, while both LXRs and PXR had no effect, or just slightly activated the basal transcription ( Figure 1 ). Consequently, the baseline activities were normalized as percentage of maximal activity mediated by full agonists, as follows: 6% for FXR, 8% for LXRα, 9% for LXRβ, 19% for PXR ( Table 1 ). On the contrary, the basal activity was increased by the expression of CAR and RORγ. Due to the inherent constitutive activity, we determined this activity equal to 100% as the specific agonists were not able to reveal their transactivation potential alone, but they were able to reverse the inhibition caused by antagonists/reverse agonists. To characterize easily CAR agonists, we used cell line expressing a variant of CAR (CAR + APYLT) with reduced basal ([Auerbach et al., 2003]). […]

Row | Molecule | Nonspecific activation of luciferase expression in HG5LN parental cell line | Toxicity (non-specific decrease of luciferase expression) in HG5LN parental cell line
7 | CC(C)c1onc(-c2c(Cl)cccc2Cl)c1COc1ccc(/C=C/c2cccc(C(=O)O)c2)c(Cl)c1 [GW4064] | significant nonspecific activation | –
8 | COc1cccc(Cn2cc(C(=O)Nc3ccc(C)c(S(=O)(=O)N4CCOCC4)c3)c(-c3ccc(C)cc3)n2)c1 [DY268] | significant nonspecific activation | –
9 | Fc1ccc(-c2c3cccc(C(F)(F)F)c3nn2Cc2ccc(F)cc2Cl)cc1 [WAY252623] | significant nonspecific activation | –
10 | Cc1cc(C)c(S(=O)(=O)N(Cc2ccc(-c3cccc(S(C)(=O)=O)c3)cc2)Cc2ccc(C(F)(F)F)o2)c(C)c1 [GSK2033] | significant nonspecific activation | –
11 | Clc1ccccc1C(c1ccccc1)(c1ccccc1)n1ccnc1 [Clotrimazole, clotrimazole] | – | most toxic
12 | Clc1ccc(-c2nc3sccn3c2/C=N/OCc2ccc(Cl)c(Cl)c2)cc1 [CITCO] | significant nonspecific activation | –
13 | SPA70 | – | most toxic
